Measurements taken from PMC4549624 (Scientific Reports, 2015).
Like-named read-outs stand apart in the source and are kept apart here.

How the values were obtained:
KCNQ1 = settings: cited from earlier work
KCNE1 (human) = KCNE1 (human) (UniProt P15382)
KCNE1-R32D (human) = KCNE1-R32D (human) (UniProt P15382)

Compound: CCS(=O)(=O)N(C)[C@H]1c2cc(C#N)ccc2OC(C)(C)[C@@H]1O (racemic) [chromanol 293B]
- effect on KCNQ1 (KCNQ1): inhibit the channel

Compound: COc1ccc(-c2csc(NC(=O)[C@H]3CCCCN3S(=O)(=O)c3ccc(C)cc3)n2)cc1 [ML277]
- effect on KCNQ1 (KCNQ1; binds to side pocket in KCNQ1, especially KCNE1-free side pocket, in words): enhance the amplitude of the KCNQ1 current

Compound: O=C(Nc1cc(C(F)(F)F)ccc1O)Nc1cc(C(F)(F)F)ccc1O [NS1643]
- effect on KCNQ1 (KCNQ1; binds to KCNQ1, in words): enhance the channel conductance

Compound: SSD609 (peptide)
- current of wild-type KCNQ1/KCNE1 left under SSD609 in transfected CHO cells, whole-cell patch clamp (reference of the R32D mutant) (KCNE1 (human)): 30%
- current of KCNQ1/KCNE1-R32D left under SSD609 in transfected CHO cells, whole-cell patch clamp (KCNE1-R32D (human)): < 10%
